The text below walks through data of PubChem BioAssay AID2060490 (Molecular Pharmacology Branch, DTP, NCI, 2025).

The experiment has as its system 885512-296-R-J2-PDC complex spheroid viability. The experiment can be described thus: Anticancer human tumor 885512-296-R-J2-PDC patient-derived breast carcinoma cell line growth inhibition [GQUAD]. The conditions noted are these: for viability, T/C: stronger effect = lower value. In short, it runs like this:
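Tumor cells were grown as complex spheroids with HUVEC endothelial cells and mesenchymal stem cells as stroma. G-quadruplex stabilizers were combined with targeted agents over half-log dilutions from near the clinical Cmax, or from 10 microM.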

[1] abbreviates: curve of first compound, second compound 0.0316 µM.
Setting [2] is: curve of first compound, second compound 0.1 µM.
Where [3] appears, read: curve of first compound, second compound 0.316 µM.
[4] abbreviates: curve of first compound, second compound 1 µM.
The mark [5] stands for this setting: curve of first compound, second compound 3.16 µM.
The mark [6] stands for this setting: curve of first compound, second compound 10 µM.
Setting [7] is: second compound 0.0316 µM, first compound 0.0316 µM.
The mark [8] stands for this setting: second compound 0.0316 µM, first compound 0.1 µM.
Setting [9] is: second compound 0.0316 µM, first compound 0.316 µM.
The mark [10] stands for this setting: second compound 0.0316 µM, first compound 1 µM.
Setting [11] is: second compound 0.0316 µM, first compound 3.16 µM.
[12] abbreviates: second compound 0.0316 µM, first compound 10 µM.
Setting [13] is: second compound 0.1 µM, first compound 0.0316 µM.
[14] abbreviates: second compound 0.1 µM, first compound 0.1 µM.
[15] abbreviates: second compound 0.1 µM, first compound 0.316 µM.
The mark [16] stands for this setting: second compound 0.1 µM, first compound 1 µM.
[17] abbreviates: second compound 0.1 µM, first compound 3.16 µM.
The mark [18] stands for this setting: second compound 0.1 µM, first compound 10 µM.
[19] abbreviates: second compound 0.316 µM, first compound 0.0316 µM.
Setting [20] is: second compound 0.316 µM, first compound 0.1 µM.
[21] abbreviates: second compound 0.316 µM, first compound 0.316 µM.
Where [22] appears, read: second compound 0.316 µM, first compound 1 µM.
Where [23] appears, read: second compound 0.316 µM, first compound 3.16 µM.
Setting [24] is: second compound 0.316 µM, first compound 10 µM.
Where [25] appears, read: second compound 1 µM, first compound 0.0316 µM.
The mark [26] stands for this setting: second compound 1 µM, first compound 0.1 µM.
[27] abbreviates: second compound 1 µM, first compound 0.316 µM.
Setting [28] is: second compound 1 µM, first compound 1 µM.
[29] abbreviates: second compound 1 µM, first compound 3.16 µM.
The mark [30] stands for this setting: second compound 1 µM, first compound 10 µM.
Where [31] appears, read: second compound 3.16 µM, first compound 0.0316 µM.
The mark [32] stands for this setting: second compound 3.16 µM, first compound 0.1 µM.
Where [33] appears, read: second compound 3.16 µM, first compound 0.316 µM.
Where [34] appears, read: second compound 3.16 µM, first compound 1 µM.
The mark [35] stands for this setting: second compound 3.16 µM, first compound 3.16 µM.
Setting [36] is: second compound 3.16 µM, first compound 10 µM.
Where [37] appears, read: second compound 10 µM, first compound 0.0316 µM.
Setting [38] is: second compound 10 µM, first compound 0.1 µM.
The mark [39] stands for this setting: second compound 10 µM, first compound 0.316 µM.
Setting [40] is: second compound 10 µM, first compound 1 µM.
Where [41] appears, read: second compound 10 µM, first compound 3.16 µM.
The mark [42] stands for this setting: second compound 10 µM, first compound 10 µM.

“And” between values parts separate entries of the source, which are not always exact repeats. Equal values may be shown once. Where only a bound is given, the exact number is not on record here.
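Note: spheroids exposed to the compounds for one week.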
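Throughout, for viability, T/C: percent of tumor spheroid viability relative to DMSO vehicle control wells.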

As for `O=c1[nH]cc(F)c(=O)[nH]1` + Cc1cnc(CNC(=O)c2c(=O)c3ccc(N4CCCN(C)CC4)nc3n3c2sc2ccccc23)cn1, the concentration for half-maximal inhibition (IC50) by setting is: under setting [1], greater than 10000 nM; under setting [2], greater than 10000 nM; under setting [3], less than 31.6 nM; under setting [4], less than 31.6 nM; under setting [5], less than 31.6 nM; under setting [6], less than 31.6 nM. Also, the viability, T/C is 90.9% under setting [7]; 75.9% under setting [8]; 87.1% under setting [9]; 69.5% under setting [10]; 59.4% under setting [11]; 52.1% under setting [12]. Besides, the viability, T/C is, setting by setting: under setting [13], 68.3%; under setting [14], 70.2%; under setting [15], 54.4%; under setting [16], 66.3%; under setting [17], 51.1%; under setting [18], 56.8%. The viability, T/C runs as follows: under setting [19], 30%; under setting [20], 27.2%; under setting [21], 23.6%; under setting [22], 19.8%; under setting [23], 38%; under setting [24], 36.1%. Also, the viability, T/C runs as follows: under setting [25], 29.9%; under setting [26], 28.4%; under setting [27], 26.4%; under setting [28], 28%; under setting [29], 23.1%; under setting [30], 27.6%. Moreover, the viability, T/C under setting [31] was 23.5%; the viability, T/C under setting [32] was 27.8%; the viability, T/C under setting [33] is 22.4%; the viability, T/C under setting [34] was 20.4%; the viability, T/C under setting [35] was 29.4%; the viability, T/C under setting [36] is 24.1%. For the same compound, the viability, T/C by setting is: under setting [37], 0.1%; under setting [38], 0.16%; under setting [39], 0.21%; under setting [40], 0.13%; under setting [41], 0.19%; under setting [42], 0.16%.
Consider `O=c1[nH]cc(F)c(=O)[nH]1`, for which the viability, T/C reads like this: (compound 0.0316 µM) 94.2% and 107% and 96.5%; (compound 0.1 µM) 102% and 97.5% and 105%; (compound 0.316 µM) 113% and 107% and 99.3%; (compound 1 µM) 123% and 89.3% and 95.8%; (compound 3.16 µM) 71.7% and 58.4% and 66%; (compound 10 µM) 52.8% and 55% and 55.4%. The IC50 (curve of compound) was greater than 10000 nM.
For `CC1COCCN1c1cc(-c2ccnn2C)c2ccnc(-c3ccn[nH]3)c2n1` (configuration not stated) + Cc1[nH]c2ccc(F)cc2c1-c1nc2c3cccnc3c3ncccc3c2[nH]1, the half-maximal inhibitory concentration (IC50) reads like this: under setting [1], less than 31.6 nM; under setting [2], 36 nM; under setting [3], less than 31.6 nM; under setting [4], less than 31.6 nM; under setting [5], less than 31.6 nM; under setting [6], less than 31.6 nM. In addition, the viability, T/C was 44.6% under setting [7]; 7.14% under setting [8]; 3.23% under setting [9]; 2.97% under setting [10]; 4.21% under setting [11]; 7.57% under setting [12]. The viability, T/C was 55.6% under setting [13]; 5.92% under setting [14]; 3.53% under setting [15]; 3.59% under setting [16]; 5.52% under setting [17]; 6.77% under setting [18]. Further, the viability, T/C reads like this: under setting [19], 37.9%; under setting [20], 3.68%; under setting [21], 2.99%; under setting [22], 2.87%; under setting [23], 5.08%; under setting [24], 7.25%. Moreover, the viability, T/C runs as follows: under setting [25], 5.35%; under setting [26], 3.41%; under setting [27], 2.46%; under setting [28], 2.67%; under setting [29], 5.38%; under setting [30], 5.76%. The viability, T/C under setting [31] was 1.59%; the viability, T/C under setting [32] is 1.58%; the viability, T/C under setting [33] is 1.11%; the viability, T/C under setting [34] is 1.8%; the viability, T/C under setting [35] is 3.23%; the viability, T/C under setting [36] is 3.81%. Further, the viability, T/C under setting [37] is 1.17%; the viability, T/C under setting [38] is 1.15%; the viability, T/C under setting [39] is 1.51%; the viability, T/C under setting [40] was 2.19%; the viability, T/C under setting [41] was 2.68%; the viability, T/C under setting [42] is 4.02%.
`COc1cc(C2c3cc4c(cc3C(OC3OC5COC(C)OC5C(O)C3O)C3COC(=O)C23)OCO4)cc(OC)c1O` (configuration not stated): the viability, T/C by setting is: (compound 0.0316 µM) 100% and 98.3% and 90.5%; (compound 0.1 µM) 97.9% and 98.6% and 88.2%; (compound 0.316 µM) 87.8% and 77.3% and 74.2%; (compound 1 µM) 43.1% and 30.2% and 27.2%; (compound 3.16 µM) 15.4% and 11.7% and 11.3%; (compound 10 µM) 9.14% and 7.67% and 7.65%. Also, the IC50 (curve of compound) was 843 nM and 618 nM and 573 nM.
Consider `Cc1cnc(CNC(=O)c2c(=O)c3ccc(N4CCCN(C)CC4)nc3n3c2sc2ccccc23)cn1`, for which the viability, T/C (compound 0.0316 µM) is 86.1% [middle of 12 runs]; the viability, T/C (compound 0.316 µM) was 28.4% [middle of 12 runs]; the viability, T/C (compound 1 µM) was 26.3% [middle of 12 runs]; the viability, T/C (compound 3.16 µM) was 27% [middle of 12 runs]; the viability, T/C (compound 10 µM) is 0.17% [middle of 9 runs]. Further, the IC50 (compound alone, run of 04/16/2024) was 166 nM [middle of 12 runs].
Consider `COc1ccc([C@@H](O)c2cc(-c3ncnc4cc(N5CCOCC5)ccc34)c(F)cc2Cl)nn1`, for which the viability, T/C runs as follows: (compound 0.0316 µM) 110% and 101% and 96%; (compound 0.1 µM) 103% and 106% and 92.4%; (compound 0.316 µM) 101% and 89.6% and 92.7%; (compound 1 µM) 97.4% and 79.5% and 91.5%; (compound 3.16 µM) 79.2% and 89.1% and 88.5%; (compound 10 µM) 64.3% and 53.6% and 58.4%. The half-maximal inhibitory concentration (IC50) (curve of compound) was greater than 10000 nM.
For the compound `CC1COCCN1c1cc(C2(O)CC3CCC(C2)O3)c2cnn(-c3ccn[nH]3)c2n1` (configuration not stated), the viability, T/C by setting is: (compound 0.0316 µM) 35.6% and 35.7% and 28.2%; (compound 0.1 µM) 5.4% and 6.31% and 4.72%; (compound 0.316 µM) 3.47% and 3.66% and 2.97%; (compound 1 µM) 4.37% and 4.46% and 4.22%; (compound 3.16 µM) 5.77% and 6.96% and 7.53%; (compound 10 µM) 7.08% and 8.11% and 7.48%. For the same compound, where the note is “curve of compound”, the IC50 was less than 31.6 nM.
Consider `CCc1c2c(nc3ccc(O)cc13)-c1cc3c(c(=O)n1C2)COC(=O)[C@]3(O)CC`, for which the viability, T/C is 25.5% and 14.5% and 17.8% (compound 0.000999 µM); 8.48% and 8.19% and 8.06% (compound 0.00316 µM); 5.42% and 2.67% and 4.25% (compound 0.00999 µM); 3.41% and 2.61% and 2.84% (compound 0.0316 µM); 2% and 2.11% and 1.97% (compound 0.0999 µM); 1.84% and 1.42% and 1.47% (compound 0.316 µM). Besides, the concentration for half-maximal inhibition (IC50) (curve of compound) was less than 0.999 nM.
As to `CC(=O)O[C@H]1C(=O)[C@@]2(C)[C@H]([C@H](OC(=O)c3ccccc3)[C@]3(O)C[C@H](OC(=O)[C@H](O)[C@@H](NC(=O)c4ccccc4)c4ccccc4)C(C)=C1C3(C)C)[C@]1(OC(C)=O)CO[C@@H]1C[C@@H]2O`, the viability, T/C is 79.3% and 9.94% and 12.2% (compound 0.0316 µM); 21.6% and 4.6% and 3.99% (compound 0.316 µM); 2.5% and 3.51% and 4.61% (compound 1 µM); 0.25% and 3.46% and 2.82% (compound 3.16 µM); 0.14% and 3.66% and 4.04% (compound 10 µM). Further, the IC50 (curve of compound) is 113 nM and < 31.6 nM.
Consider `CC(C)n1c(=O)n(C)c2cnc3cc(F)c(-c4ccc(OCCCN5CCCCC5)nc4)cc3c21`, for which the viability, T/C (compound 0.0316 µM) was 88.8% and 89% and 85.8%; the viability, T/C (compound 0.1 µM) was 97% and 84.5% and 80.4%; the viability, T/C (compound 0.316 µM) was 88% and 93.7% and 77.8%; the viability, T/C (compound 1 µM) was 85.8% and 90.9% and 79.7%; the viability, T/C (compound 3.16 µM) is 104% and 97.5% and 90.3%; the viability, T/C (compound 10 µM) was 100% and 105% and 104%. In addition, the half-maximal inhibitory concentration (IC50) (curve of compound) is greater than 10000 nM.
As to `CC1COCCN1c1cc(C2(S(C)(=N)=O)CC2)nc(-c2ccnc3[nH]ccc23)n1` (configuration not stated), the viability, T/C reads like this: (compound 0.0316 µM) 103% (2×) and 99.8%; (compound 0.1 µM) 106% and 90.2% and 88.9%; (compound 0.316 µM) 98.9% and 83.5% and 84.4%; (compound 1 µM) 43% and 40% and 30%; (compound 3.16 µM) 5.74% and 6.03% and 4.64%; (compound 10 µM) 4.07% and 4.55% and 4.14%. For the setting “curve of compound”, the half-maximal inhibitory concentration (IC50) is 865 nM and 752 nM and 652 nM.
Consider `O=C(c1cc(Cc2n[nH]c(=O)c3ccccc23)ccc1F)N1CCN(C(=O)C2CC2)CC1`, for which the viability, T/C was 99.8% and 85.3% and 97.1% (compound 0.0316 µM); 117% and 107% and 96.9% (compound 0.1 µM); 112% and 116% and 95.1% (compound 0.316 µM); 152% and 127% and 126% (compound 1 µM); 144% and 122% (2×) (compound 3.16 µM); 41.6% and 24.8% and 33% (compound 10 µM). The concentration for half-maximal inhibition (IC50) (curve of compound) is 8900 nM and 7180 nM and 7700 nM.

One may read the IC50 as the concentration needed to halve the response being measured. The term viability, T/C denotes the ratio of treated to control.
